Source: patent US20180023041A1, “CLEANING COMPOSITIONS CONTAINING A DIAMINOSTILBENE BRIGHTENER” (The Procter & Gamble Company, priority 2016, published 2018)

Assay: Dissolution of brightener from granular laundry detergent formulations in hardness water, UV-Vis absorbance of filtered solution at 350 nm
Type: physicochemical
Settings: in comparison with the control formulation with LAS only; in words
Method: The total surfactant levels for Formulations A-H are maintained the same at 20 wt %.
Prepare 10 gpg hardness water (Ca:Mg=3:1) and place 1L of such hardness water in each of 8 beakers separately. Weight a 6.12g sample from each of the Formulations A-H hereabove respectively, and put the samples into beakers with hardness water on the maganetic stirrers. Stir for 15 mins to dissolve the sample.
Take about 8 ml solution by using a 10m1 injection syringe. Install a 0.45pm filter on the injection syringe for filtering the solution when it is injected out of the syringe. Inject the filtered solution into a sample cuvette of the UV-Vis spectrophotometer. Place the sample cuvette in a measuring position of the UV-Vis spectrophotometer. Read and record the absorbance (ABS) of solutions at a UV wavelength of 350nm respectively.

With O=S(=O)([O-])c1ccccc1C=Cc1ccc(-c2ccc(C=Cc3ccccc3S(=O)(=O)[O-])cc2)cc1.[Na+].[Na+] [Florescent Brigthener 351, disodium 2,2′-([1,1′-biphenyl]-4,4′-diyldivinylene)bis(benzenesulphonate)] the “dissolution of the brightener in a surfactant system containing LAS, mid-cut AS, and soap” value was “much less”.
